# Patent US11230569B2, “Antiplasmodial compounds” (UNIVERSITY OF CENTRAL FLORIDA RESEARCH FOUNDATION, INC., priority 2018, dated 2022)
# Read-outs that look alike come from different tables or passages of the source.
# How the values were obtained:
# [1] = tested on: P. falciparum Dd2; assay: SYBR Green I-based fluorescence assay, intraerythrocytic growth inhibition; type: cell-based, Plasmodium falciparum
# Text: (§1) In the pursuit to discover next generation of antimalarials from novel areas of chemical space, a large library of diverse fungi was screened to discover secondary metabolites active against malaria parasite. […] The Cichewicz fungal collection contains tens of thousands of fungal isolates that were secured from diverse habitats and ecological niches across the United States. It is believed that fungal secondary metabolites, which are underexplored for antimalarial drug discovery, provide a unique opportunity to explore medicinally relevant, but untapped chemical space for the discovery of essential malaria therapeutics. Libraries of 750 pure compounds, and of 460 extracts obtained from diverse fungal sources have been screened for their ability to inhibit intraerythrocytic growth of chloroquine-resistant P. falciparum Dd2 using a SYBR Green I-based fluorescence assay. As a counter screen, the cytotoxicity of the top ten extracts in HepG2 cells was evaluated using the MTS ((3-(4,5 dimethylthiazol-2-yl)-5-(3-carboxymethoxyphenyl)-2-(4-sulfophenyl)-2H-tetrazolium, inner salt) cell proliferation assay. This screening has identified potent and selective novel antiplasmodial compounds. These unique pharmacophores from wide areas of chemical space would provide chemical starting points to develop lead compounds for drugs against malaria.
# Ten millimolar compound stocks in DMSO were diluted by ½, ⅕, and/or 1/10 fold dilutions in ultrapure water or RPMI 1640. Varying concentrations of compound were added to culture at a 1% parasitemia and 2% hematocrit in 96-well black plates. Assay conditions maintained maximum DMSO concentrations less than 0.125% per dilution. Positive (baseline 0% growth) controls consisted of Chloroquine at 1 μM final concentration. Following 72 h incubation at 37° C. in 5% CO2, dilution plates were frozen at −80° C. for a minimum of 30 minutes. Dilution plates were allowed to thaw followed by lysis treatment and SYBR Green I incorporation. DNA quantification was determined using a fluorescence reading on a Synergy H4 multimode plate reader set at 485 nm excitation and 530 nm emission as previously reported (Roberts, Iyamu et al. 2016). EC50 was calculated from a dose response curve that was generated from a concentration range of 0-10 μM using GraphPad Prism v5.0.
# Different dilutions of the compound/fraction in 1 μl of the culture medium were added to 99 μl of P. falciparum culture at a 1% parasitemia and 2% hematocrit in 96-well plates. Maximum DMSO concentration in the culture never exceeded 0.125%. Chloroquine at 1 μM was used as a positive control to determine the baseline value. Following 72 hours incubation at 37° C., the plates were frozen at −80° C. After thawing, 100 μL of lysis buffer (with SYBR Green I dye 1:10,000) was added to each well and plates were incubated at room temperature for 30 minutes prior to reading.
# Culture was maintained following a modified Trager and Jensen protocol.^xxv Multi-drug resistant P. falciparum line Dd2 was grown in RPMI 1640 supplemented with 25 mM HEPES pH 7.4, 26 mM NaHCO3, 2% dextrose, 15 mg/L hypoxanthine, 25 mg/L gentamycin and 0.5% Albumax II in human A+ erythrocytes. Culture was maintained at 4% hematocrit at 37° C. with 5% CO2.
# Plates were subsequently frozen at −80° C. to facilitate lysis. After thawing, plates were incubated with 1×SYBR Green I in lysis buffer (20 mM Tris-HCl, 0.08% saponin, 5 mM EDTA, 0.8% Triton X-100) for 45-60 min at room temperature. Fluorescence was measured at an excitation wavelength 485 nm, emission 530 nm in a Synergy Neo2 multi-mode reader (BioTek, Winsooki, Vt.). RFUs were normalized based on chloroquine treated and no treatment controls. For all compounds listed, serial dilutions were prepared in RPMI with final assay conditions of 0.2% DMSO or below.
# [2] = tested on: Histone H4; assay: Western blot of parasite extracts with anti-acetyl histone 4 antibody; type: cell-based, Plasmodium; settings: mixed stage culture, EC90 concentrations, 4 hrs
# Protocol: Mixed stage culture was incubated with EC90 concentrations of 130134 Analog 2 and PF1070A for 4 hrs and cell free parasite extracts were subjected to western blot analysis using anti-acetyl histone 4 antibody.
# Of the hits found, several have known targets in other model systems, allowing us to expedite target analysis. One such compound is Chlamydocin, a known Class I HDAC inhibitor. Western blot analysis of Plasmodium extracts confirms that analogs of this compound causes hyperacetylation of histone 4 and is suspected to target Plasmodium HDAC1.
# [3] = tested on: HepG2 human hepatocytes; assay: MTS cytotoxicity assay in HepG2 cells (counter screen, selectivity); type: cell-based; settings: for Selectivity Index: Hep G2 cell EC50 : P. falciparum EC50, pure compound library hits
# Text: as §1
# Cross selectivity for human cells was determined using HepG2 human hepatocytes and an MTS (3-(4,5-Dimethylthiazol-2-yl)-5-(3-carboxymethoxyphenyl)-2-(4-sulfophenyl)-2H-tetrazolium) based cytotoxicity assay. After seeding 2,250 cells per well into 384-well microtiter plates, cells were incubated for 24 h. Next, serial dilutions of compounds were added to the seeded plates and incubated for additional 48 h at 37° C., and 5% CO2. Zero percent growth control wells were incubated with 5% Triton X-100 for 5 min prior to MTS addition and incubated for 4 h at identical growth conditions. Absorbance was then read at 490 nm in a Synergy Neo2 multi-mode reader (BioTek, Winsooki, Vt.) and values were normalized based on detergent lysed and no treatment controls.
# [4] = molecular target: PfHDAC1 (Plasmodium falciparum, UniProt Q7K6A1); assay: PfHDAC1 assay; type: biochemical
# Text: (§2) Culture followed until 54 HPI. Scale bar represents 1 micron. FIG. 10(B) is a western blot showing acetylation following treatment at 6 HPI with 137LJ57K, initial impure extract of 137LJ57K1.
# FIGS. 17-20 provide multiple versions of cyclic tetrapeptides along with their EC50s for various noted assays including Pf, Hep G2 and PfHDAC1 assays
# [5] = tested on: trophozoites; assay: IFA and western blot for acetylation after treatment at 6 HPI; type: cell-based; settings: culture followed until 54 HPI
# Text: Culture followed until 54 HPI. Scale bar represents 1 micron.
# as §2
# [6] = tested on: P. falciparum; settings: literature; cited from earlier work
# [7] = Plasmodium falciparum, DD2, 72 h
# [8] = Plasmodium falciparum, Top hits from pure compound library, chloroquine-resistant P. falciparum Dd2, 72 h, read-out: EC50
# Chain of PfHDAC1 (Q7K6A1 entry or part of it): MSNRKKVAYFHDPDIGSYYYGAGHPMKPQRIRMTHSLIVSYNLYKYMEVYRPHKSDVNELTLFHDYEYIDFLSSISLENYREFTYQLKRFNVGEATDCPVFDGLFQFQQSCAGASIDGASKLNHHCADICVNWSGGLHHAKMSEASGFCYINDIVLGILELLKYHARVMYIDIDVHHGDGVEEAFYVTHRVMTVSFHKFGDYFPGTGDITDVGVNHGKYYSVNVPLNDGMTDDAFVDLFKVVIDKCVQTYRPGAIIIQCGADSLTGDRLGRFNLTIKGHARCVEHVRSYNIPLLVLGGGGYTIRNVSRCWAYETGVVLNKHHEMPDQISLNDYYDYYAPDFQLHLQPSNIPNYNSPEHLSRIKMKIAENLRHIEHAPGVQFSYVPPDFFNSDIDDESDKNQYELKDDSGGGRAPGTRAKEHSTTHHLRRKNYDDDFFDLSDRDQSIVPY
Compound,"EC50 [1, 7]",Selectivity Index [3],also measured
"CC1NC(=O)C(CCCCCC(=O)C2CO2)NC(=O)C2CCCN2C(=O)C(Cc2ccccc2)NC1=O (centres unmarked) [130134 Analog 1, 1-Alanine-chlamydocin]",9 nM,3,hyperacetylation of Histone H4 [2]: causes hyperacetylation of Histone H4
"CCC(C)C1NC(=O)C(Cc2ccccc2)NC(=O)C(CCCCCC(=O)C2CO2)NC(=O)C2CCCCN2C1=O (centres unmarked) [130134 Analog 2, PF1070A]",37 nM,>23,"EC50 ([1]; Plasmodium falciparum, DD2, read-out: EC50 against multidrug resistant malaria): 37 nM; hyperacetylation of Histone H4 [2]: causes hyperacetylation of Histone H4; selectivity (in words) [3]: selective"
CCC(C)C1NC(=O)C(Cc2ccccc2)NC(=O)C(CCCCCC(=O)C2CO2)NC(=O)C2CCCCN2C1=O (centres unmarked) [Compound 137LJ57K1],–,–,"EC50 [4]: < 0.2 nM; EC50 ([1]; Plasmodium falciparum, DD2, read-out: Dd2 EC50 (nM)): 88 nM; EC50 ([3]; Homo sapiens, HepG2): 13100 nM; hyperacetylation [5]: hyperacetylation during trophozoite stage"
C/C1=C\[C@H](C)C[C@H](C)CC(=O)C[C@H](c2ccc(O)cc2)NC(=O)[C@@H](Cc2c(Br)[nH]c3ccccc23)N(C)C(=O)[C@H](C)NC(=O)[C@@H](C)C1 [Compound 120030],271 nM,>92.25,–
C=C1[C@@H](O)[C@@H]2O[C@]3(CC[C@H](/C=C/[C@@H](C)[C@@H]4CC(C)=C[C@@]5(O[C@H](C[C@@](C)(O)C(=O)O)CC[C@H]5O)O4)O3)CC[C@H]2O[C@@H]1[C@@H](O)C[C@H](C)[C@H]1O[C@@]2(CCCCO2)CC[C@H]1C [Compound 120033],55 nM,>77,–
COC1=CC(c2ccc[nH]2)=N/C1=C/NCC(C)C [Compound 120036],–,57.31,"EC50 [1, 8]: 180 nM"
Oc1cc(O)c2c(c1)O[C@H](c1ccc(O)c(O)c1)[C@@H](O)C2 [Compound 120051],–,11.44,"EC50 [1, 8]: 47 nM"
C[C@@]12OC(=O)[C@]1(C(O)[C@@H]1C=CCCC1)NC(=O)[C@@H]2CCCl (some centres unmarked) [Compound 120066],47 nM,290.28,–
CC[C@H]1/C=C/C=C/C[C@@H](C)[C@H](O)[C@@](C)(O)C(=O)[C@@H](C)[C@H](O)[C@@H](C)C(=O)[C@@H](C)[C@H](O)[C@@H](C)/C=C/C(=O)O[C@@H]2[C@H](C)[C@H](CC1)O[C@]1(CC[C@H](C)[C@H](C[C@@H](C)O)O1)[C@H]2C [Compound 120086],–,14.62,"EC50 [1, 8]: 361 nM"
O=C(c1cc(Cl)c(Cl)[nH]1)c1c(O)cccc1O [Compound 130115],491 nM,>32,–
CC(C)[C@H]1CC[C@@](O)(CCl)[C@H]2C(=O)OCC(C(=O)O)=C[C@H]12 [Compound 130129],361 nM,3,–
CC(C)C1CCC(O)(CCl)C2C(=O)OCC(C(=O)O)=CC12 (centres unmarked) [Compound 130130],469 nM,3,–
CC(C)[C@H]1CC[C@@](O)(COC(=O)/C(=C/[C@@H]2[C@@H](C(C)C)CCC3(O)COC(=O)[C@@H]23)CO)[C@H]2C(=O)OCC(C(=O)O)=C[C@H]12 (some centres unmarked) [Compound 130131],–,>54,"EC50 [1, 8]: 367 nM"
CC[C@H](C)[C@@H](C(=O)O[C@@H](CC(C)C)C(=O)N[C@@H](CC(C)C)C(=O)N[C@@H](C)/C=C/C(=O)N1C(=O)C=C(OC)[C@@H]1C)N(C)C [gallinamide A],–,–,IC50 [6]: 8400 nM
Chlamydocin [Compound 130134],–,7,"EC50 ([1]; Top hits from pure compound library, chloroquine-resistant P. falciparum Dd2, 72 h, read-out: EC50): 24.7 nM"
